Experimental data as given in paper PMC6331789, “Phytochemicals from Ruta graveolens Activate TAS2R Bitter Taste Receptors and TRP Channels Involved in Gustation and Nociception” (Molecules, 2015).
Values belong to the molecule of their own block, whether it stands above or below them.

Key:
TAS2R14 [1] = conditions: cited from earlier work
TAS2R10 [2] = conditions: cited from earlier work; for Selective agonism of TAS2R10 (literature): described in the literature, no reference given
TAS2R14 [3] = biological target: T1, TAS2R14 (Homo sapiens, UniProt Q9NYV8); assay: In vitro calcium imaging assay on cloned TAS2R14 in transfected HEK293T cells; type: cell-based
T1 construct: expressed in transfected cells; host or cells: HEK293T
T1 sequence (Q9NYV8 1-317): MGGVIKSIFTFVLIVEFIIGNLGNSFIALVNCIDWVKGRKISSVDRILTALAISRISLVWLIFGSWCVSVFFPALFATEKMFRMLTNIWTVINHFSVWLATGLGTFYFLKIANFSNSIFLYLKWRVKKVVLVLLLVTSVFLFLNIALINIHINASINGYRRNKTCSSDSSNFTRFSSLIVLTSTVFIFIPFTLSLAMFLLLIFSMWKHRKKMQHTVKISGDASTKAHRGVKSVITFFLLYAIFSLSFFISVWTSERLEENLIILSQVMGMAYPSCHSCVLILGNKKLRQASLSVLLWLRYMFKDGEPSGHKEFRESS
Source text: (§1) Pure phytochemicals were submitted to in vitro assays with a platform of twenty cloned receptors of the bitter taste TAS2R family and four receptors of the TRP family related to the perception of taste and somatosensory sensations. All experiments have been repeated three times, each time with four replicates. […] For simplicity, only those bitter taste receptors having reproducible positive assay, namely TASR10, 14 and 49, are reported (Table 1).
(§2) For those compounds showing activity on one or more receptor(s), the concentration/response curves were plotted and the EC50 calculated.
(§3) For the biological tests, several compounds were purchased as references from different suppliers (Sigma Aldrich, ChromaDex, Irvine, CA, USA, and Tocris Bioscience, Bristol, UK) and dissolved in assay buffer (130 mM NaCl, 5 mM KCl, 1 mM MgCl2, 2 mM CaCl2, 5 mM NaHCO3 and 20 mM HEPES, pH 7.4) or in a mixture of assay buffer and DMSO, never exceeding a final DMSO concentration of 0.5% (v/v) to avoid toxic effects and possible artefacts on transfected cells.
(§4) All human TAS2R and G15Gi1 cDNAs were produced as reported in Bassoli et al. cDNAs for human TRPA1-M5-M8-V1-V4 were cloned into a pcDNA6 expression vector (Invitrogen-Thermo Fisher, Waltham, MA, USA).
(§5) All experiments were performed using HEK293T cells (ATCC).
(§6) For the bitter platform experiments, cells were cultured, transfected and analyzed as previously described.
(§7) For the bitter platform experiments, data analyses were performed as previously described.
(§8) For the calculation of concentration-response curves, responses were calculated as the difference between maximal and minimal relative fluorescence unit (RFU) values in a selected time window (11–60 s) and were normalized to the basal well fluorescence (Time Point 1, before compound injection) in order to compensate for differences in cell density (∆F/F0). All of the experiments have been repeated three times, each time with four replicates. All of the results are averages of at least four replicates. Raw data are available in Supplementary Material, Figures S3–S6.

TRPM8 [4] = conditions: cited from earlier work
TRPM8 [5] = biological target: T2, TRPM8 (Homo sapiens, UniProt Q7Z2W7); assay: In vitro Fluo8-NW calcium assay (FLIPR) on HEK293T cells stably overexpressing TRPM8; type: cell-based; conditions: concentration/response curve
T2 construct: expressed in transfected cells
T2 sequence (Q7Z2W7 whole entry): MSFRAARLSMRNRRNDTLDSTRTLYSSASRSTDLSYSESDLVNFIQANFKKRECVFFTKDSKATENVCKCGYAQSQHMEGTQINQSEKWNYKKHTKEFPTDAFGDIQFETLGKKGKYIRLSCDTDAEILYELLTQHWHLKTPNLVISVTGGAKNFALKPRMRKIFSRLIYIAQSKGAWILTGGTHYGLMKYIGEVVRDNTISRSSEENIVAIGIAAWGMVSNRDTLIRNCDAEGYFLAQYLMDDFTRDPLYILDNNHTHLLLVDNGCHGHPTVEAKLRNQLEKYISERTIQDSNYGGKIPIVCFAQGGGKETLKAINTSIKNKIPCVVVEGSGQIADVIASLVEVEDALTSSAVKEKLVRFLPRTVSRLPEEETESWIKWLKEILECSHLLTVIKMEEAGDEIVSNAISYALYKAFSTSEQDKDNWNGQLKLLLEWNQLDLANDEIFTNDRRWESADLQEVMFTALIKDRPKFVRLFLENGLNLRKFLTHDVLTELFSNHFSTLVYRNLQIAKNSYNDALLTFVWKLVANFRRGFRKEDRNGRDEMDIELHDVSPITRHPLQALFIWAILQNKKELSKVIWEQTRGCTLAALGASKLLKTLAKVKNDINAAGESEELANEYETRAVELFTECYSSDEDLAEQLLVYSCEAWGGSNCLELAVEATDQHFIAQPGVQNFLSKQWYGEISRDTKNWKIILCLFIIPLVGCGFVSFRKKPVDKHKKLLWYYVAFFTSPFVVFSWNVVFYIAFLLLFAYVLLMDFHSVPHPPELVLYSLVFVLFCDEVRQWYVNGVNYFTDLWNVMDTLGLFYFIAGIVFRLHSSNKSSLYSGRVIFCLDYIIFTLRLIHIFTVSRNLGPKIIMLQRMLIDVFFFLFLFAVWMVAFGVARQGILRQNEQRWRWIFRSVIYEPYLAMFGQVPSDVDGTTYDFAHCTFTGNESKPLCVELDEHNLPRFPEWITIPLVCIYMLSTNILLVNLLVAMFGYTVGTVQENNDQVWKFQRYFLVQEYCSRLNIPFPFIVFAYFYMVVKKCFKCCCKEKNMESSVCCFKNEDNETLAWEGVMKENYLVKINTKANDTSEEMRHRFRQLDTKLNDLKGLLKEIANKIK
Source text: as §1, §2, §3, §4, §5
(§9) For TRP platform experiments, cells were cultured in MEM/EBSS medium (ECB2071L EuroClone, Milan, Italy) plus 10% (v/v) fetal bovine serum (FBS) (26400-044 Gibco, Karlsruhe, Germany) and 1% (v/v) Pen/Strep 10K/10K stock (17-602E Lonza, Basel, Switzerland). Stable cell lines were generated overexpressing each TRP channel, and clones were selected with 500 µg/mL of G418 (ant-gn-5 Invivogen, Karlsruhe, Germany). To analyze TRP receptor responses, cells were plated at a concentration of 20,000 cells/well in 384-well plates (GR-4330 Twin Helix srl, Milan, Italy). Cellular responses were measured 24 h after seeding.
For TRPA1-M8-V1-V4 experiments, a solution of Fluo8-NW calcium-sensitive dye (36316 AAT BioQuest, Sunnyvale, CA, USA) was prepared using the assaybuffer and diluting the kit components 1:2 according to the manufacturer’s instructions. Twenty-four hours after seeding, cells were incubated one hour at RT, loaded with 40 µL of Fluo8-NW solution for each well and incubated again for one hour at RT before data acquisition.
(§10) For TRPM5 experiments, cells were loaded 24 h after seeding with a Membrane Potential Dye (R8034 MDC) solution in assay buffer according to the manufacturer’s instructions and incubated at 37 °C for 1 h before acquisition. All experiments were performed using a fluorometric imaging plate reader (FLIPR^TETRA, Molecular Devices equipped with ICCD Camera from Stanford Photonics, INC, (Palo Alto, CA, USA) and kinetics were visualized with Molecular Devices’ Screenworks 3.0 (Sunnyvale, CA, USA).
as §8

TAS2R49 [6] = tested on: TAS2R49; design: method as in PMID 20022913; conditions: cited from earlier work
TAS2R10 [7] = biological target: T3, TAS2R10 (Homo sapiens, UniProt Q9NYW0); assay: In vitro calcium imaging assay on cloned TAS2R10 in transfected HEK293T cells; type: cell-based; conditions: concentration/response curve; values with ≥ estimated, curve did not saturate; read-out: EC50 TAS2R10
T3 construct: expressed in transfected cells; host or cells: HEK293T
T3 sequence (Q9NYW0 1-307): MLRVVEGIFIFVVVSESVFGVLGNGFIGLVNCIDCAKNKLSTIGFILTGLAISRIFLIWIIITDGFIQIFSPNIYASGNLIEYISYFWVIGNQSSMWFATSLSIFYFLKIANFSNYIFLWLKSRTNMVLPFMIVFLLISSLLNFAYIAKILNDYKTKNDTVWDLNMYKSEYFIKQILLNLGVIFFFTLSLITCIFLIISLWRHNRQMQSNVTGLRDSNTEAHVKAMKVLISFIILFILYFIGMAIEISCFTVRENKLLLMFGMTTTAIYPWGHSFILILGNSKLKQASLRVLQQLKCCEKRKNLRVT
Source text: as §1, §2, §3, §4, §5, §6, §7, §8

TAS2R49 [8] = biological target: T4, TAS2R49 (Homo sapiens, UniProt P59543); assay: In vitro calcium imaging assay on cloned TAS2R49 in transfected HEK293T cells; type: cell-based; conditions: concentration/response curve; read-out: EC50 TAS2R49
T4 construct: expressed in transfected cells; host or cells: HEK293T
T4 sequence (P59543 1-309): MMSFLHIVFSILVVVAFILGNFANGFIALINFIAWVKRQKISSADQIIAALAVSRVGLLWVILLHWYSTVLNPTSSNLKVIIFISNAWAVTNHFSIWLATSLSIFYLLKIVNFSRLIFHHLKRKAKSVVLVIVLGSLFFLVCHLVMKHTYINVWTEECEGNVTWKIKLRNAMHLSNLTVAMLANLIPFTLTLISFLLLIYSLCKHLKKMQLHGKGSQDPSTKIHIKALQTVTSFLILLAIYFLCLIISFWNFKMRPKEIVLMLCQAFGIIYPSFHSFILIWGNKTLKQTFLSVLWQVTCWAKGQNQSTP
Source text: as §1, §2, §3, §4, §5, §6, §7, §8

bitter taste receptor = tested on: bitter taste receptor; design: method as in PMID 24117141; conditions: cited from earlier work
TRPM5 = biological target: T5, TRPM5 (Homo sapiens, UniProt Q9NZQ8); assay: In vitro membrane potential dye assay (FLIPR) on HEK293T cells stably overexpressing TRPM5; type: cell-based; conditions: concentration/response curve; values with ≥ estimated
T5 construct: expressed in transfected cells
T5 sequence (Q9NZQ8 1-1165): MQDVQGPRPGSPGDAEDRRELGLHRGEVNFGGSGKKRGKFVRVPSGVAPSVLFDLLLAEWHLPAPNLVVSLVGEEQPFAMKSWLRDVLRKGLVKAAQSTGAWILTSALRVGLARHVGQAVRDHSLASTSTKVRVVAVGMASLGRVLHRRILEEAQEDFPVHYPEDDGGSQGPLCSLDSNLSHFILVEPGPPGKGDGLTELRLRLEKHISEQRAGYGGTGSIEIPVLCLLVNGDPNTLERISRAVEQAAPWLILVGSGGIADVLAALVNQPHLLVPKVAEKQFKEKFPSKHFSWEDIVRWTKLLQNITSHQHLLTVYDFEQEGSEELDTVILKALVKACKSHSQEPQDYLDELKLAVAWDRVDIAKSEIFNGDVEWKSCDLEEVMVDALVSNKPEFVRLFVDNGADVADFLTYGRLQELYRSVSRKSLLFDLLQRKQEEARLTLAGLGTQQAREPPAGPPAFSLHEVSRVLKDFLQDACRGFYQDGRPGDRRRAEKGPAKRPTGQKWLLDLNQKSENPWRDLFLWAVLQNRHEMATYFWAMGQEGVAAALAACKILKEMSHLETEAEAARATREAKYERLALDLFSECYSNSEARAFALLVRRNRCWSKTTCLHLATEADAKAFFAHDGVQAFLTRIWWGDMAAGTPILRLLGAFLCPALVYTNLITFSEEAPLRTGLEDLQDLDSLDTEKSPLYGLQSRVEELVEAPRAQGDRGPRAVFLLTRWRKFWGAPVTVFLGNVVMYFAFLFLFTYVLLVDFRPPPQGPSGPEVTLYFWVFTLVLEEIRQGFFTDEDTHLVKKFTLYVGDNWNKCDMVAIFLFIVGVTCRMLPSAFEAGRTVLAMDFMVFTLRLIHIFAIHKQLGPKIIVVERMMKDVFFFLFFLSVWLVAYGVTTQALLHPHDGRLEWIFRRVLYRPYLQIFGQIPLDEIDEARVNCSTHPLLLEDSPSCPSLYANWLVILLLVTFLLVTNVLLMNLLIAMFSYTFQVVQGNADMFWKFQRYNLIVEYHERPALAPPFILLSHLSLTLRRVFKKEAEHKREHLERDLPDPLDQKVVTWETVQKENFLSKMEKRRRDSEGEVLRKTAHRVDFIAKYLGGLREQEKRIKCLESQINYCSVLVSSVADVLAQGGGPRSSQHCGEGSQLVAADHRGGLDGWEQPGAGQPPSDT
Source text: as §1, §2, §3, §4, §5, §9, §10, §8

SMILES: O=c1ccc2ccccc2o1 [Coumarin]
Agonism of TAS2R14 (literature) (TAS2R14 [1]): known agonist | Agonism of TAS2R10 (literature) (TAS2R10 [2]): known agonist

SMILES: COc1cccc2c1cc([N+](=O)[O-])c1c(C(=O)O)cc3c(c12)OCO3 [Aristolochic Acid, reference compound]
EC50 (TAS2R14 [3]): 2.3 µM

SMILES: CC[C@H]1OC(=O)[C@H](C)[C@@H](O[C@H]2C[C@@](C)(OC)[C@@H](O)[C@H](C)O2)[C@H](C)[C@@H](O[C@@H]2O[C@H](C)C[C@H](N(C)C)[C@H]2O)[C@](C)(O)C[C@@H](C)C(=O)[C@H](C)[C@@H](O)[C@]1(C)O [erythromycin]
Selective agonism of TAS2R10 (literature) (TAS2R10 [2]): selective agonists

SMILES: CC[C@H]1CC2CN3CCc4c([nH]c5ccc(OC)cc45)[C@](C(=O)OC)(C2)[C@H]13 (stereo in doubt) [voacangine]
TRPM8 inhibition (literature) (TRPM8 [4]): potent TRPM8 inhibitor

EC50 (TRPM8 [5]): 4 µM
SMILES: CCNC(=O)C1CC(C)CCC1C(C)C (stereo not drawn) [WS3, reference compound]

SMILES: O=C(O)c1cc(=O)c2c(OCC(O)COc3cccc4oc(C(=O)O)cc(=O)c34)cccc2o1 [cromolyn]
Agonism of TAS2R49 (literature) (TAS2R49 [6]): non-selective agonists

EC50 (TAS2R10 [7]): 8.3 µM
SMILES: CC[N+](CC)(CC(=O)Nc1c(C)cccc1C)Cc1ccccc1 [Denatonium Benzoate, reference compound]

SMILES: OC(CCCN1CCCCC1)(c1ccccc1)c1ccccc1 [diphenidol]
Agonism of TAS2R49 (literature) (TAS2R49 [6]): non-selective agonists

SMILES: CC(=O)OC(C)(C)/C=C/C(=O)[C@](C)(O)[C@H]1[C@H](O)C[C@@]2(C)[C@@H]3CC=C4[C@@H](C=C(O)C(=O)C4(C)C)[C@]3(C)C(=O)C[C@]12C [cucurbitacin E]
Selective agonism of TAS2R10 (literature) (TAS2R10 [2]): selective agonists

EC50 (TAS2R49 [8]): 6 µM
SMILES: Cc1nc2sccn2c(=O)c1CCN1CCC(=C(c2ccc(F)cc2)c2ccc(F)cc2)CC1 [Ritanserin, reference compound]

SMILES: O=c1cc(-c2ccc(O)c(O)c2)oc2cc(O)cc(O)c12 [luteolin]
Bitter taste receptor activation of flavonoids (literature) (bitter taste receptor): active

EC50 (TRPM5): 4.3 µM
SMILES: C[N+](C)(C)CCOC(N)=O [Carbachol, reference compound]

SMILES: COc1ccc2c(c1OC)C(=O)O[C@@H]2[C@H]1c2c(cc3c(c2OC)OCO3)CCN1C [noscapine]
Selective agonism of TAS2R14 (literature) (TAS2R14 [1]; described in the literature, no reference given): selective agonist

SMILES: O=c1c(O)c(-c2ccc(O)c(O)c2)oc2cc(O)cc(O)c12 [quercetin]
Bitter taste receptor activation of flavonoids (literature) (bitter taste receptor): still active, but with lower efficacy
